Columns and labels:
[1] = target: T1, CaMKII/GluN2B co-localization in HEK293 cells (Homo sapiens, UniProt Q9UQM7); test: Ionomycin-induced co-localization of GFP-CaMKII and mCherry-2BC in HEK293 cells; type: cell-based; conditions: 10 μM inhibitor
T1 construct: expressed in transfected cells; host or cells: HEK293 cells
Method: In a series of exemplary methods, an in vitro kinase assay was used where purified CaMKIIα is incubated at 30° C. with GST-GluA1 alongside ATP. CaMKIIα normally phosphorylates S831 on the GluA1 subunit and this phosphorylation can be measured as a readout of CaMKIIα enzymatic activity (see e.g., FIG. 8B). […] In another exemplary method, binding of purified CaMKIIα to immobilized GST-GluN2B-c was induced by Ca^2+/CaM in the presence of a vehicle (none), 4 mM ADP or with […] AS105. […] At the same time, two exemplary methods were performed to observe ionomycin or chemical LTP (cLTP) induced co-localization of CaMKII and GluN2B either in HEK293 cells co-expressing GFP-CaMKII and mCherry-2BC or dissociated rat hippocampal cultures expressing GFP-CaMKII and mCh-PSD95 intrabody. HEK293 cells, incubating with vehicle or 10 μM AS105, were subjected to ionomycin. Hippocampal cultures, also incubating with either vehicle or 10 μM AS105, were treated with a chemical LTP (cLTP) stimulus (e.g., 100 μM glutamate, 10 μM glycine for 45 seconds). Confocal microscopy images were taken before and after each stimulus.

[2] = test system: CaMKII movement to excitatory synapses; test: cLTP-induced CaMKII movement to excitatory synapses in the presence of soluble oligomeric Aβ; type: cell-based; conditions: 0.5 μM Aβ, inhibitor 10 μM, 45 minutes prior to cLTP
CaMKII F89G = CaMKII F89G (Homo sapiens, UniProt Q9UQM7, F89G); test: In vitro kinase assay with CaMKII F89G mutant; type: biochemical; conditions: 10 μM NM-PP1
Method: (§1) This conclusion also predicts that the LTP stimulus-induced movement of CaMKII to excitatory synapses should be (i) impaired in the CaMKII F89G mutant; but (ii) normalized by pharmacogenetic rescue with NM-PP1. Indeed, both predictions were observed experimentally (FIGS. 4D-4E).
In vitro phosphorylation assays. CaMKII-mediated phosphorylation of GluA1 S831 was measured by in vitro kinase reaction with purified GST-GluA1 c-terminal tail. Reactions contained 40 nM CaMKII (or water for negative controls), 1 μM GST-GluA1, 50 mM PIPES pH 7.1, 2 mM CaCl2), 10 mM MgCl2, 1 μM calmodulin, 1-4 mM ATP, and 1 PM of okadaic acid. Reactions were done at 30° C. for 20 s; reactions were stopped by adding SDS-loading buffer and incubation in a boiling water bath for 5 min. GST, phospho-S831, CaMKII, phospho-T286, or phospho-S1303 were detected in the samples by immunoblot analysis.

[3] = target: CaMKII F89G binding to GluN2B (Homo sapiens, UniProt Q9UQM7, F89G); test: In vitro binding of CaMKII F89G to GluN2B; conditions: NM-PP1
Sequence of CaMKII F89G binding to GluN2B (Q9UQM7 whole entry F89G): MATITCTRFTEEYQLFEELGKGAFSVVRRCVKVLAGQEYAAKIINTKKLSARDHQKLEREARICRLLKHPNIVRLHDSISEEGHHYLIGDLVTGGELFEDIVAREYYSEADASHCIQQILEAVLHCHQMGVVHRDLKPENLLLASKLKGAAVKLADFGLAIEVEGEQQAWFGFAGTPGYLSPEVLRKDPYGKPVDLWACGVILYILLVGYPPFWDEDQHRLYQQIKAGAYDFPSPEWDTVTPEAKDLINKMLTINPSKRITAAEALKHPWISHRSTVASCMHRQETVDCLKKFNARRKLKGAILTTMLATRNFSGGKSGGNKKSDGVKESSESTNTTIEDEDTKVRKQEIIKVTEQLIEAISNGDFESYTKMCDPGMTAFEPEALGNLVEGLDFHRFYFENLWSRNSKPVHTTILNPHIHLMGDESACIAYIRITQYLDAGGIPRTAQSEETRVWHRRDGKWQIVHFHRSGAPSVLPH
Sequence of CaMKII F89G binding to GluN2B (Q13224 836-1484 partner limits assumed): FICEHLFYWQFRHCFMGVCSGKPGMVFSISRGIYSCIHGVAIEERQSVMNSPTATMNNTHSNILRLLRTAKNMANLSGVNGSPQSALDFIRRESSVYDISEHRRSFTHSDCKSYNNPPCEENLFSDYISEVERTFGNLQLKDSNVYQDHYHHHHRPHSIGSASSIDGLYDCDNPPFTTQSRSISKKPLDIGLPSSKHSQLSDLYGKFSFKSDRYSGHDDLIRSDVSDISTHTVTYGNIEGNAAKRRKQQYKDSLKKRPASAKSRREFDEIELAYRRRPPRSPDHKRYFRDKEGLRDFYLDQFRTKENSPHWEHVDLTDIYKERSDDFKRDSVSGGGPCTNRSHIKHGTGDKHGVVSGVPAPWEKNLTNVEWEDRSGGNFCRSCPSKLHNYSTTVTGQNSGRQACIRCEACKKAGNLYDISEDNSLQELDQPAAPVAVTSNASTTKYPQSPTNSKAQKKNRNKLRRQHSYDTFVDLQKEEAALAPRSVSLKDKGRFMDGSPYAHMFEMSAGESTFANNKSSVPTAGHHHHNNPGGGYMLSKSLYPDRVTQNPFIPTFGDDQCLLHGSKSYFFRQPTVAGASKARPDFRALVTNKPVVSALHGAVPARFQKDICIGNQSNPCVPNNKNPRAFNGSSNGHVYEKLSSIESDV
Excerpt: as §1
CaMKII binding to GluN2B in vitro. CaMKII/GluN2B binding assays were done as described. Briefly, GST-GluN2B-c-tail (GST-2BC) was immobilized on anti-GST-antibody-coated microtiter plates (Thermo Scientific), blocked for 30 min with 5% BSA, and then overlaid with […] CaMKII (subunit concentration) in PIPES-buffered saline (pH 7.2) containing: 2 mM Ca^2+, 1 μM CaM, 1 mM Mg^2+, 0.1% BSA, 0.1% Tween-20 for 20 min at room temperature. Addition of 1 mM ADP, 1 mM ATP, 10 μM AS283 (or AS105) or […] NM-PP1 was added accordingly (see figure legends). After extensive washes in buffer containing 1 mM EGTA, GST-2BC and bound CaMKII was eluted for 10 min in SDS-loading buffer at 95° C. Bound CaMKII was measured via immunoblot.

[4] = test system: synaptic localization of CaMKII F89G / K42M; test: Synaptic localization of GFP-CaMKII F89G or K42M mutants in rat hippocampal cultures, basal and cLTP; type: cell-based; conditions: 10 μM NM-PP1, basal and cLTP
Method: as §1
Chemical LTP stimulation. Chemical LTP (CL TP) was induced with 100 μM glutamate and 10 μM glycine for 45 seconds. Treatments were followed by washout in 5 volumes of fresh ACSF. For biochemistry experiments, neurons were treated with 1 μM TTX to silence neurons prior to treatment with cLTP.
Image analysis of hippocampal neurons. […] 2D maximum intensity projection images were then generated and analyzed using a custom-build program in ImageJ. The program utilizes combinatorial thresholding to mask regions of the cell that contain high intensity PSD-95 puncta (the post-synaptic side of excitatory synapses in dendritic spines) and regions of the dendritic shaft that contain no fluorescence intensity of PSD-95. As a measure of synaptic enrichment, the ratio of mean CaMKII fluorescence intensity of the PSD-95 mask to the mean CaMKII fluorescence intensity in the dendritic shaft mask is measured. Spine growth was assessed by measuring the changes in mCherry cell fill fluorescence intensity within dendritic spine ROIs (F/F0).

T1 sequence (Q9UQM7 whole entry): as the sequence (Q9UQM7 whole entry F89G) above, with G89F counted along it
T1 sequence (Q13224 836-1484 S1303A partner limits assumed): as the sequence (Q13224 836-1484 partner limits assumed) above, with S468A counted along it

## NCCNc1cccc(-c2ccnc3[nH]c4ccccc4c23)c1 [AS283]
[1]
  ionomycin-induced CaMKII/GluN2B co-localization in HEK293 cells: failed to inhibit CaMKII binding to GluN2B
[2]
  rescue of Aβ-blocked cLTP-induced movement of CaMKII to the synapses: rescued

## CC(C)(C)n1nc(Cc2cccc3ccccc23)c2c(N)ncnc21 [NM-PP1]
CaMKII F89G
  residual enzymatic activity of CaMKII F89G: still further reduced
[3]
  binding of CaMKII F89G to GluN2B in vitro: enabled binding of CaMKII F89G to GluN2B also in vitro
[4]
  impaired synaptic localization of CaMKII F89G mutant: rescued

From patent publication US20260263429A1, “INHIBITORS OF CA 2+/CALMODULIN-DEPENDENT PROTEIN KINASE II (CAMKII) THAT DO NOT INHIBIT LONG-TERM POTENTIATION (LTP) INDUCTION AND THERAPEUTIC USES THEREOF” (The Regents of the University of Colorado, A Body Corporate, priority 2023, published 2026)
